Laboratory results from PMC6863902, “Functional and structural basis of E. coli enolase inhibition by SF2312: a mimic of the carbanion intermediate” (Scientific Reports, 2019).
Several values for one entry are separate records, joined by “and”; a condition that tells them apart may be missing. Equal entries are not always repeated. Where two headings read alike, the source gives them in different places. Blank lines part the entries; values can stand above or below the molecule they belong to.

Assays:
[1] = target: T1, recombinant E. coli enolase (Escherichia coli, UniProt P0A6P9); assay: E. coli enolase enzymatic inhibition assay (PEP absorbance at 240 nm); type: biochemical; settings: for IC50: enolase 40 nM, 0.5 mM 2-PGA, 25 °C; for Ki: from IC50 by Cheng-Prusoff equation and KM
T1 construct: made in house
Procedure: To assess the relative affinity of SF2312 and KSF for enolase, the inhibitory constant, Ki, was determined from IC50 values using the Cheng-Prusoff equation and KM values.
The activity and inhibition of E. coli enolase described in this study was carried out using the procedure as we previously reported. Briefly, enolase activity was measured at 25 °C in the forward (formation of PEP from 2‐PGA) direction by direct monitoring of the increase in PEP absorbance at 240 nm, using a DU 640 spectrophotometer (Beckman). The standard assay contained 50 mM Tris pH 8.0, 0.1 M KCl, 0.5 mM 2-PGA and 1 mM MgSO4. The reactions were carried out at a final volume of 500 μL. Initial velocities came from the slopes of linear progress curves of 1 minute duration. One unit of enolase activity was defined as the amount of protein which catalyzes the formation of 1 μmole PEP from 2-PGA in 1 minute. The concentration of PEP was determined using a molar extinction coefficient (Ɛ240nm = 1400 M^−1 cm^1).
Inhibition of enolase activity by SF2312 and its analog, KSF was performed at a constant enolase concentration of 40 nM. The compounds, supplied in water, were preincubated with protein at concentrations ranging from 2 nM to 20 µM for 5 minutes in the assay buffer consisting of 50 mM Tris pH 8.0, 0.1 M KCl and 1 mM MgSO4. The reaction was initiated by the addition of 0.5 mM 2-PGA. The decrease in enolase activity upon inhibition was monitored at 5 second intervals for a period of 5 minutes at λ =240 nm. The average half maximal inhibitory concentrations (IC50) was calculated from initial rates of absorbance increase plotted as a function of ligand concentration using GraphPad Prism software (Fig. 2). Ki values were calculated using the Cheng-Prusoff equation from the experimental IC50 and Km values.

[2] = target: T1, recombinant E. coli enolase; assay: Differential scanning calorimetry thermal unfolding of enolase with inhibitors; type: binding; settings: for protein thermal melting point (Tm): enolase 6 μM with ligand 60 μM, apo enolase 52.7 °C; for shift of thermal melting point: versus enolase without inhibitor (∼53 °C)
Procedure: We used differential scanning calorimetry to analyze the direct in vitro binding of SF2312 and KSF to recombinant E. coli enolase (see Fig. 3). […] Upon overnight treatment with SF2312, the protein thermal melting point was ~82 °C, a shift of ∼29 °C.
The DCS experiment was performed as described previously. Prior to analysis, purified E. coli enolase was buffer exchanged into 20 mM HEPES (pH 7.0), 50 mM NaCl and 2 mM MgCl2. The concentrations of protein and ligand were adjusted to 6 μM and 60 μM, respectively. Protein samples with and without ligand were heated from 0–120 °C at 1 °C/min using a NanoDSC instrument (TA instruments). The samples were degassed for 15 minutes prior to injection into the calorimeter cell. The reference cell was filled with buffer for all runs. A pressure of 3 atm was applied to both cells during the run. The excess heat capacity scans for the protein transitions were obtained by subtracting a control scan of buffer versus buffer. The data were corrected for the difference in heat capacity between the initial and the final state by using a sigmoid baseline in the NanoAnalyze software (TA instruments) and a two-state transition model was used to determine the denaturation temperature (Tm) (Fig. 3).

E. coli ATCC 25922 [3] = assay: MIC, microdilution broth assay; type: cell-based; settings: Escherichia coli
Description: (§1) To evaluate the activity of SF2312 against Gram-positive and Gram-negative bacteria, we have determined the minimal inhibitory concentration (MIC) for Escherichia coli ATCC 25922, Staphylococcus aureus ATCC […], Pseudomonas aeruginosa ATCC 27853, and Acinetobacter baumannii ATTC 19606 using the microdilution broth assay based on Clinical and Laboratory Standards Institute. Concentrations of SF2312 and the standard antibiotics tested were serially diluted to the following ranges: SF2312, 300 to 0.2 μg/mL; trimethoprim 10 to 0.01 μg/mL and fosfomycin, 20 to 0.040 μg/mL. For synergy studies, using the checkerboard method the following concentration range was used: fosfomycin 10 to 0.156 μg/mL and SF2312 100 to 0.05 μg/mL. The cation-adjusted Mueller-Hinton broth was supplemented with 25 μg/mL glucose-6-phosphate. Growth was monitored at Abs 600 nm. The MIC of each antimicrobial agent alone and in combination was defined as the lowest concentration that inhibited visible growth of the organism and were determined in duplicate.

S. aureus ATCC 43300 = assay: MIC, microdilution broth assay; type: cell-based; settings: Staphylococcus aureus
Description: as §1

A. baumannii ATCC 19606 = assay: MIC, microdilution broth assay; type: cell-based, Acinetobacter baumannii
Description: as §1

P. aeruginosa ATCC 27853 = assay: MIC, microdilution broth assay; type: cell-based, Pseudomonas aeruginosa
Description: as §1

E. coli ATCC 25922 [4] = assay: Checkerboard synergy of SF2312 with fosfomycin; type: cell-based, Escherichia coli; settings: for MIC: Escherichia coli; for maximum drop of E. coli MIC when co-administered: SF2312 co-administered with fosfomycin
Procedure: It should be noted that the target of fosfomycin, UDP-N-acetylglucosamine enolpyruvyl transferase (MurA), acts immediately downstream of enolase utilizing PEP in the first step of peptidoglycan synthesis. Since targeting two sequential enzymes in the same metabolic pathway can be a powerful synergistic mechanism for two antibiotics, an evidence for synergy between SF2312 and fosfomycin was assessed by the checkerboard method. […] The observed synergy supports the notion that the antibacterial activity of SF2312 is due to the inhibition of enolase since, fosfomycin is known to have minimal to no effect on the enzymes utilizing PEP, such as enolase.
as §1
The definition of synergy used in these studies was the fractional inhibitory concentration (FIC) index, represented by the formula FIC= (MIC of fosfomycin in combination/MIC of fosfomycin alone) + (MIC of SF2312 in combination/MIC of the SF2312 alone). A calculated FIC index of less than 0.5 represented a synergistic effect (i.e., total effect greater than the sum of the individual antibiotic effects), a value between 0.5–2 represented an additive effect (i.e. no additional contribution from including the second antibiotic, compared with when the first antibiotic. A value greater than 2 represented an antagonistic effect (i.e., total effect less than the sum of the individual effects)[26].

ENO1-rescued cells = system: ENO1-rescued cells; design: method as in earlier work; settings: isogenic ENO1-rescued glioma cells; ref 5 (Leonard et al.); cited from earlier work
[5] = CAHM media with 25 μg/mL Glucose-6-Phosphate

T1 sequence (P0A6P9 whole entry): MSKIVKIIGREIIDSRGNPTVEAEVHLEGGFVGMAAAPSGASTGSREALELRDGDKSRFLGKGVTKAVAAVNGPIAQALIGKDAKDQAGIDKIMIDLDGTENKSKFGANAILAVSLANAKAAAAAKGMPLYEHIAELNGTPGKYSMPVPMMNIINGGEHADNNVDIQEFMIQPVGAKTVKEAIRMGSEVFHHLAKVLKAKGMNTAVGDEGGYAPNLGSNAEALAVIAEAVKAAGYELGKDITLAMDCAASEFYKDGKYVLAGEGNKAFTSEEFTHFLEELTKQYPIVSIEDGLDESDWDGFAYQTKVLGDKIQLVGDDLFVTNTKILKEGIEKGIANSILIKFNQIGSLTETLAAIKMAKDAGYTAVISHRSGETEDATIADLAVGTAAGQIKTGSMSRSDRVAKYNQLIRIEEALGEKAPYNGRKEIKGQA

Structure (SMILES): O=C1C(P(=O)(O)O)CC(O)N1O (stereo not drawn) [SF2312, 3-Dihydroxyphosphoryl-1-,5-dihydroxy-2-pyrrolidone]
IC50 [1]: 18.4 ± 2.84 nM
Ki [1]: 3.4 nM
protein thermal melting point (Tm) [2]: ~ 82 °C and 81.75 °C
shift of thermal melting point [2]: ~29 °C
MIC (E. coli ATCC 25922 [3]; ATCC25922, CAHM media with 25 μg/mL Glucose-6-Phosphate): 100 µg/mL
MIC (E. coli ATCC 25922 [3]; ATCC25922, CAHM media without Glucose-6-Phosphate): 400 µg/mL
MIC (S. aureus ATCC 43300; ATCC43300, CAHM media with 25 μg/mL Glucose-6-Phosphate): 20 µg/mL
MIC (S. aureus ATCC 43300; ATCC43300, CAHM media without Glucose-6-Phosphate): 100 µg/mL
MIC (A. baumannii ATCC 19606; Acinetobacter baumannii, ATCC19606): > 400 µg/mL
MIC (A. baumannii ATCC 19606; [5]): >400 µg/mL
MIC (P. aeruginosa ATCC 27853; [5]): 50 µg/mL
MIC (P. aeruginosa ATCC 27853; Pseudomonas aeruginosa, ATCC27853): 50 µg/mL
MIC (E. coli ATCC 25922 [4]; ATCC25922, read-out: MIC alone): 100 µg/mL
maximum drop of E. coli MIC when co-administered (E. coli ATCC 25922 [4]): 16 fold
GI50 (ENO1-rescued cells): > 200000 nM

Structure (SMILES): O=C1CC(P(=O)(O)O)C(=O)N1O (stereo not drawn) [KSF, (1-hydroxy-2,5-dioxopyrrolidin-3-yl)phosphonic acid]
IC50 [1]: 7670 nM and 7700 nM
Ki [1]: 1400 nM
loss in activity between SF2312 and KSF ([1]; ratio of IC50 values): over 400 fold
protein thermal melting point (Tm) [2]: 70.85 °C
shift of thermal melting point [2]: ~18 °C

MIC (E. coli ATCC 25922 [3]; ATCC25922, CAHM media with 25 μg/mL Glucose-6-Phosphate, read-out: MIC): 1.25 µg/mL
MIC (E. coli ATCC 25922 [3]; ATCC25922, CAHM media without Glucose-6-Phosphate, read-out: MIC): > 10 µg/mL
MIC (S. aureus ATCC 43300; ATCC43300, CAHM media with 25 μg/mL Glucose-6-Phosphate, read-out: MIC): 2.5 µg/mL
MIC (S. aureus ATCC 43300; ATCC43300, CAHM media without Glucose-6-Phosphate, read-out: MIC): 20 µg/mL
MIC (A. baumannii ATCC 19606; Acinetobacter baumannii, ATCC19606, CAHM media without Glucose-6-Phosphate, read-out: MIC): > 20 µg/mL
MIC (A. baumannii ATCC 19606; [5]): >20 µg/mL
MIC (P. aeruginosa ATCC 27853; [5]): 5 µg/mL
MIC (P. aeruginosa ATCC 27853; Pseudomonas aeruginosa, ATCC27853, CAHM media without Glucose-6-Phosphate, read-out: MIC): 5 µg/mL
MIC (E. coli ATCC 25922 [4]; ATCC25922, checkerboard, partner agent 0 μg/mL, 25 μg/mL glucose-6-phosphate, read-out: MIC alone): 1.25 µg/mL
maximum drop of E. coli MIC when co-administered (E. coli ATCC 25922 [4]): 4 fold
Structure (SMILES): C[C@@H]1O[C@@H]1P(=O)(O)O [fosfomycin]
